From patent US10214535B2, “Hydroxmethyl piperidine orexin receptor antagonists” (MERCK SHARP & DOHME CORP., priority 2014, dated 2019)
Read-outs that look alike come from different tables or passages of the source.

Key:
hOX1R = hOX1R (Homo sapiens, UniProt O43613); assay: hOX1R FLIPR Ca2+ flux assay; assay type: cell-based
human orexin-2 receptor = human orexin-2 receptor (Homo sapiens (Human), UniProt O43614); assay: hOX2R FLIPR Ca2+ flux assay; assay type: cell-based; conditions: CHO cells expressing the human orexin-2 receptor; agonist 70 pM Ala-6,12 orexin-A
Chain of human orexin-2 receptor (O43614 whole entry): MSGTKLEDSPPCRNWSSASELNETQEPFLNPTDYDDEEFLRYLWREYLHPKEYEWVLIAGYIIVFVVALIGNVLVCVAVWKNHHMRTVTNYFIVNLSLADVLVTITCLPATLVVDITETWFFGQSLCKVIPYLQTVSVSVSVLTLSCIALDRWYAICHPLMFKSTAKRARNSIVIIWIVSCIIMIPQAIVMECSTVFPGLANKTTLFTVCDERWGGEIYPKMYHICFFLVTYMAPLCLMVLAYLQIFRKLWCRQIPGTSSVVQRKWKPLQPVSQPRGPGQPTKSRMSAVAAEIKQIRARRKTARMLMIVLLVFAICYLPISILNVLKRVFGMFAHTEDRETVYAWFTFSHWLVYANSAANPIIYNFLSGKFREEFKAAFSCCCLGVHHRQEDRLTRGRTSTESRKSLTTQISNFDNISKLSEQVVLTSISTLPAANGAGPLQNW
Procedure: In a typical experiment the OX1 and OX2 receptor antagonistic activity of the compounds of the present invention was determined in accordance with the following experimental method. For intracellular calcium measurements, Chinese hamster ovary (CHO) cells expressing the rat orexin-1 receptor or the human orexin-2 receptor, are grown in Iscove's modified DMEM containing 2 mM L-glutamine, […], 1% hypoxanthine-thymidine supplement, 100 U/ml penicillin, 100 μg/ml streptomycin and 10% heat-inactivated fetal calf serum (FCS). The cells are seeded at 20,000 cells/well into Becton-Dickinson black 384-well clear bottom sterile plates coated with poly-D-lysine. All reagents were from GIBCO-Invitrogen Corp. The seeded plates are incubated overnight at 37° C. and 5% CO2. Ala-6,12 human orexin-A as the agonist is prepared as a 1 mM stock solution in 1% bovine serum albumin (BSA) and diluted in assay buffer (HBSS containing 20 mM HEPES, 0.1% BSA and 2.5 mM probenecid, pH7.4) for use in the assay at a final concentration of 70 pM. Test compounds are prepared as 10 mM stock solution in DMSO, then diluted in 384-well plates, first in DMSO, then assay buffer. On the day of the assay, cells are washed 3 times with 100 μl assay buffer and then incubated for 60 min (37° C., 5% CO2) in 60 μl assay buffer containing 1 μM Fluo-4AM ester, 0.02% pluronic acid, and 1% BSA. The dye loading solution is then aspirated and cells are washed 3 times with 100 μl assay buffer. 30 μl of that same buffer is left in each well. Within the Fluorescent Imaging Plate Reader (FLIPR, Molecular Devices), test compounds are added to the plate in a volume of 25 μl, incubated for 5 min and finally 25 μl of agonist is added. Fluorescence is measured for each well at 1 second intervals for 5 minutes and the height of each fluorescence peak is compared to the height of the fluorescence peak induced by 70 pM Ala-6,12 orexin-A with buffer in place of antagonist. For each antagonist, IC50 value (the concentration of compound needed to inhibit 50% of the agonist response) is determined. Alternatively, compound potency can be assessed by a radioligand binding assay (described in Bergman et. al. Bioorg. Med. Chem. Lett. 2008, 18, 1425-1430) in which the inhibition constant (Ki) is determined in membranes prepared from CHO cells expressing either the OX1 or OX2 receptor. The intrinsic orexin receptor antagonist activity of a compound which may be used in the present invention may be determined by these assays.

[1] = CHO cells expressing orexin-1 receptor, agonist 70 pM Ala-6,12 orexin-A, read-out: hOX1R FLIPR IC50

Structure (SMILES)	IC50 (hOX1R; [1])	IC50 (human orexin-2 receptor)	IC50 (hOX1R)
COC(=O)c1c(OC)cccc1O[C@@H]1CC[C@@H](CO)N(C(=O)c2ccccc2-n2nccn2)C1 [Example 1, Methyl 2-{[(3R,6S)-6-(hydroxymethyl)-1-{[2-(2H-1,2,3-triazol-2-yl)phenyl]carbonyl}-piperidin-3-yl]oxy}-6-methoxybenzoate]	> 10000 nM	198 nM	–
CC1(C)OC(=O)c2c1ccnc2O[C@@H]1CC[C@@H](CO)N(C(=O)c2ccccc2-n2nccn2)C1 [Example 2, 4-{[(3R,6S)-6-(Hydroxymethyl)-1-{[2-(2H-1,2,3-triazol-2-yl)phenyl]carbonyl}piperidin-3-yl]oxy}-1,1-dimethylfuro[3,4-c]pyridin-3(1H)-one]	> 10000 nM	21 nM	–
N#Cc1ccnc(O[C@@H]2CC[C@@H](CO)N(C(=O)c3ccccc3-n3nccn3)C2)c1 [Example 3, 2-{[(3R,6S)-6-(hydroxymethyl)-1-{[2-(2H-1,2,3-triazol-2-yl)phenyl]carbonyl}piperidin-3-yl]oxy}pyridine-4-carbonitrile]	> 10000 nM	17 nM	–
COC(=O)c1c(C#N)cccc1O[C@@H]1CC[C@@H](CO)N(C(=O)c2ccccc2-n2nccn2)C1 [Example 4, methyl 2-cyano-6-{[(3R,6S)-6-(hydroxymethyl)-1-{[2-(2H-1,2,3-triazol-2-yl)phenyl]carbonyl}piperidin-3-yl]oxy} benzoate]	> 10000 nM	49 nM	–
Cc1ccnc(O[C@@H]2CC[C@@H](CO)N(C(=O)c3ccccc3-n3nccn3)C2)c1 [Example 5, [(2S,5R)-5-[(4-methylpyridin-2-yl)oxy]-1-{[2-(2H-1,2,3-triazol-2-yl)phenyl]carbonyl}piperidin-2-yl]methanol]	1710 nM	18 nM	–
O=C(c1ccccc1-n1nccn1)N1C[C@H](Oc2cc(OCC(F)F)ccn2)CC[C@H]1CO [Example 6, [(2S,5R)-5-{[4-(2,2-difluoroethoxy)pyridin-2-yl]oxy}-1-{[2-(2H-1,2,3-triazol-2-yl)phenyl]carbonyl}piperidin-2-yl]methanol]	–	60 nM	> 10000 nM
Cc1c(C#N)ccnc1O[C@@H]1CC[C@@H](CO)N(C(=O)c2ccccc2-n2nccn2)C1 [Example 7, 2-{[(3R,6S)-6-(hydroxymethyl)-1-{[2-(2H-1,2,3-triazol-2-yl)phenyl]carbonyl}piperidin-3-yl]oxy}-3-methylpyridine-4-carbonitrile]	1780 nM	8 nM	–
CCOc1ccccc1C(=O)N1C[C@H](Oc2nccc(C#N)c2OC)CC[C@H]1CO [Example 10, 2-{[(3R,6S)-1-[(2-Ethoxyphenyl)carbonyl]-6-(hydroxymethyl)piperidin-3-yl]oxy}-3-methoxypyridine-4-carbonitrile]	> 10000 nM	12 nM	–
COc1c(C#N)ccnc1O[C@@H]1CC[C@@H](CO)N(C(=O)c2cccnc2OCC(F)(F)F)C1 [Example 11, 2-{[(3R,6S)-6-(hydroxymethyl)-1-{[2-(2,2,2-trifluoroethoxy)pyridin-3-yl]carbonyl}piperidin-3-yl]oxy}-3-methoxypyridine-4-carbonitrile]	4080 nM	9 nM	–
COc1c(C#N)ccnc1O[C@@H]1CC[C@@H](CO)N(C(=O)c2cccnc2OC(C)C)C1 [Example 12, 2-{[(3R,6S)-6-(hydroxymethyl)-1-{[2-(1-methylethoxy)pyridin-3-yl]carbonyl}piperidin-3-yl]oxy}-3-methoxypyridine-4-carbonitrile]	> 10000 nM	27 nM	–
COc1c(C#N)ccnc1O[C@@H]1CC[C@@H](CO)N(C(=O)c2ccccc2OC(F)F)C1 [Example 13, 2-{[(3R,6S)-1-{[2-(difluoromethoxy)phenyl]carbonyl}-6-(hydroxymethyl)piperidin-3-yl]oxy}-3-methoxypyridine-4-carbonitrile]	> 10000 nM	39 nM	–
COc1c(C#N)ccnc1O[C@@H]1CC[C@@H](CO)N(C(=O)c2ccccc2OC(F)(F)F)C1 [Example 14, 2-{[(3R,6S)-(hydroxymethyl)-1-{[2-(trifluoromethoxy)phenyl]carbonyl}piperidin-3-yl]oxy}-3-methoxypyridine-4-carbonitrile]	> 10000 nM	14 nM	–
CC(C)(O)[C@@H]1CC[C@@H](Oc2cc(C#N)ccn2)CN1C(=O)c1ccccc1-n1nccn1 [Example 15, 2-{[(3R,6S)-6-(1-Hydroxy-1-methylethyl)-1-{[2-(2H-1,2,3-triazol-2-yl)phenyl]carbonyl}-piperidin-3-yl]oxy}pyridine-4-carbonitrile]	> 10000 nM	31 nM	–
Cc1c(C#N)ccnc1O[C@@H]1CC[C@@H](C(C)(C)O)N(C(=O)c2ccccc2-n2nccn2)C1 [Example 16, 2-{[(3R,6S)-6-(1-hydrox-1-methylethyl)-1-{[2-(2H-1,2,3-triazol-2-yl)phenyl]carbonyl}piperidin-3-yl]oxy}-3-methylpyridine-4-carbonitrile]	1330 nM	27 nM	–
